Experimental data reported in patent US9096643B2, “Cell-protective peptides and uses thereof” (priority 2010, dated 2015).
Several values for one entry are separate records, joined by “and”; a condition that tells them apart may be missing. Equal values may be shown once. No end group written: not given here.

Assays:
human iPS cells BJ1D [1] = experiment: BrdU assay of iPS cell proliferation; type: cell-based; settings: 50 μM, 5 passages, FIG. 16
Procedure: (§1) After 5 passages in treatment, human iPS cells were passaged as described above in the presence of 50 μM QHREDGS, 50 μM DGQESHR (Biomatik), or PBS (Lonza) onto MEF plates and grown for 3 days. Cultures were pulsed for 1 hr with 10 μM BrdU (Sigma) and immediately analyzed for immunohistochemistry (see below). Ki67 (Millipore, 1:300) co-staining was used to differentiate MEFs from human iPS cells. All samples were counterstained with DAPI (300 nM, Sigma).

human iPS cells 0901B [2] = experiment: BrdU assay of iPS cell proliferation; type: cell-based; settings: 50 μM, 5 passages, FIG. 17
Procedure: as §1

human iPS cells BJ1D [3] = experiment: iPS colony formation / cloning efficiency after complete dissociation at clonal density; type: cell-based
Procedure: (§2) The human iPS cells (BJ1D and 0901B) were obtained from the Ontario iPSC Facility and used following the hiPS cell research guidelines of the University of Toronto as described by Hotta et al. Nat. Protoc. 4, 1828-1844 (2009)), unless specified otherwise. Cells were cultured on a feeder layer of MEF cells (Mount Sinai Hospital Toronto, inactivated with 10 μg/ml mitomycin C and seeded at 1.8×10^5 per 3.5 cm dish). For single cell cultures, hiPS cell colonies were dissociated in 0.25% Trypsin-EDTA (Invitrogen) for 5 min, followed by trituration with a pipette. To ensure a single-cell suspension, the dissociated cells were passed through a 40 μm cell strainer (BD Falcon) and seeded onto MEF plates at 10 cells/ml, 10 cm plates. Cells were allowed to grow for 7 days and the total number of colonies was counted. In the treated groups, QHREDGS (Biomatik) or DGQESHR (Biomatik) dissolved in PBS (Lonza), were added at the reported concentrations to culture media at the onset of the first treatment passage and replenished with each media change. Media was changed by 100% every day. Peptides and controls were included during dissociation and passaging. Cells were analyzed after 5 passages in continuous treatment with 50 μM QHREDGS, 50 μM DGQESHR, or PBS, unless specified otherwise.
(§3) iPS cells, BJ1D or 0901B were treated with 50 μM of QHREDGS peptide, or 50 μM DGQESHR scrambled peptide in PBS with a PBS treated control for five passages as a preparation for passage by trypsin. Cells were trypsinized and plated at a clonal density of 10 cells/ml for one week and the number of colonies were counted.
(§4) After 5 passages in pre-treatment with 50 μM QHREDGS, or controls and complete dissociation (trypsinized), human iPS cells, BJ1D or 0901B cells, were plated on a mouse embryonic fibroblast (MEF) feeder layer at low density (100 cells/plate, 10 cm plate) in maintenance medium containing 50 μM QHREDGS, PBS, or 50 μM DGQESHR scrambled peptide. After one-week in culture, untreated or DGQESHR (scrambled peptide) treated groups generated few colonies, whereas QHREDGS treated groups for both BJ1D or 0901B cells produced many large colonies (˜15 times more than the controls) (see FIG. 13A/B, respectively). The colonies were positive for Oct4, a marker for the undifferentiated state. The cloning efficiency, based on ratio of Oct4+ colonies formed per initially seeded human iPS cells, was 27+/−7.1% and 2.5+/−0.6% for BJ1D and 48+/−9.4% and 22.3+/−1.9 for 0901B in the presence and absence of QHREDGS, respectively. […] Thus, treatment with QHREDGS supports single-cell culture of human iPS cells through the promotion of colony formation.

human iPS cells 0901B [4] = experiment: as above; type: cell-based
Procedure: as §2, §3, §4

[5] = system: neonatal rat CMs (heart cells); experiment: Heart cell attachment on peptide-modified Az-chitosan coated coverslips (brightfield cell counts); type: cell-based, rat (Sprague-Dawley); settings: coated glass coverslips, 1, 3 and 5 days of incubation, FIG. 1
Procedure: Neonatal (1 to 2 day-old) Sprague-Dawley rats were euthanized according to the procedure approved by the University of Toronto Committee on Animal Care. […] The supernatant from 5 collagenase digests of the tissues was collected and centrifuged at 750 rpm (94 g) for 4 min, resuspended in culture medium and pre-plated into T75 flasks (Falcon) for 1 hour to separate the non-adherent cells (enriched CMs) from the adherent cells (non-myocytes). The enriched CMs were used in the studies. The CM culture medium consisted of Dulbecco's Modified Eagle Medium (DMEM) with 4.5 g/L glucose, 4 mM L-glutamine, 10% certified fetal bovine serum (FBS), 100 U/mL penicillin, 100 μg/mL streptomycin, and 10 mM 4-2-hydroxyethyl-1-piperazineethanesulfonic acid buffer (HEPES, Gibco/Invitrogen).
The surfaces used for microscopy analysis were created on circular 12 mm diameter glass coverslips (VWR). These were plasma treated (WS-400BZ-6NPP/Lite, Laurell Technologies) for 30 s. […]
The day before cells were ready to be seeded, the surfaces in the 12-well plates were sterilized by germicidal UV illumination overnight. […]
Brightfield images were taken with 10× magnification of surfaces with cells (N=3) to visualize the morphology and cell attachment (IX81, Olympus). […] The number of cells was then counted using the cell counting plug-in on ImageJ (NIH version 1.36b).

[6] = 50 μM, 100 cells/plate on MEF, one week
[7] = in the presence of 50 μM QHREDGS

Substance | rate of proliferation (BrdU incorporation, 1 hr pulse) (human iPS cells BJ1D [1]) | rate of proliferation (BrdU incorporation, 1 hr pulse) (human iPS cells 0901B [2]) | colonies relative to controls (human iPS cells BJ1D [3]; [6]) | number of colonies (human iPS cells BJ1D [3]; 50 μM, trypsinized, clonal density, one week, FIG. 13A) | cloning efficiency (Oct4+ colonies per initially seeded cells) (human iPS cells BJ1D [3]; [7]) | colonies relative to controls (human iPS cells 0901B [4]; [6]) | number of colonies (human iPS cells 0901B [4]; 50 μM, trypsinized, clonal density, one week, FIG. 13B) | cloning efficiency (Oct4+ colonies per initially seeded cells) (human iPS cells 0901B [4]; [7]) | cell adhesion / cell attachment to coated surface [5]
QHREDGS (angiopoietin 1 peptide) | remained the same | remained the same | ~15 times more than the controls | increased significantly | 27+/−7.1% and 27% | ~15 times more than the controls | increased significantly | 48+/−9.4% and 48% | 
Az-chitosan-QHREDGS: QHREDGS peptide covalently conjugated to Az-chitosan by EDC chemistry (also: covalently conjugated to Az-chitosan by EDC chemistry, site not given here) |  |  |  |  |  |  |  |  | significantly greater cell adhesion
